The source of these data is patent US7393812B2, “Methylidene mevalonates and their use as herbicides” (Dow AgroSciences LLC, priority 2004, dated 2008).

A value given as a limit tells only on which side of the number the result lay.

Holding throughout (assay type): in vivo
Assay [1] deals with yellow nutsedge (Cyperus esculentus, CYPES). Description: Post-emergent evaluation. The conditions noted are these: data gathered 15 days after treatment, probit analysis. The protocol: (§1) Seeds of the desired test plant species were planted in Grace-Sierra MetroMix® 306 planting mixture, which typically has a pH of 6.0 to 6.8 and an organic matter content of about 30 percent, in plastic pots with a surface area of 64 square centimeters. When required to ensure good germination and healthy plants, a fungicide treatment and/or other chemical or physical treatment was applied. The plants were grown for 7-21 days in a greenhouse with an approximate 15 hr photoperiod which was maintained at about 23-29° C. during the day and 22-28° C. during the night. Nutrients and water were added on a regular basis and supplemental lighting was provided with overhead metal halide 1000-Watt lamps as necessary. The plants were employed for testing when they reached the first or second true leaf stage.
(§2) A weighed amount, determined by the highest rate to be tested, of each test compound was placed in a 20 mL glass vial and was dissolved in 4 mL of a 97:3 v/v (volume/volume) mixture of acetone and dimethyl sulfoxide (DMSO) to obtain concentrated stock solutions. […] The concentrated stock solutions obtained were diluted with an aqueous mixture containing acetone, water, isopropyl alcohol, DMSO, Atplus 411F crop oil concentrate, and Triton X-155 surfactant in a 48.5:39:10:1.5:1.0:0.02 v/v ratio to obtain spray solutions of known concentration. The solutions containing the highest concentration to be tested were prepared by diluting 2 mL aliquots of the stock solution with 13 mL of the mixture and lower concentrations were prepared by serial dilution of the stock solution. Approximately 1.5 mL aliquots of each solution of known concentration were sprayed evenly onto each of the test plant pots using a DeVilbiss atomizer driven by compressed air pressure of 2 to 4 psi ([…]) to obtain thorough coverage of each plant. Control plants were sprayed in the same manner with the aqueous mixture. In this test an application rate of 1 ppm results in the application of approximately 1 g/Ha.
(§3) The treated plants and control plants were placed in a greenhouse as described above and watered by sub-irrigation to prevent wash-off of the test compounds. After 2 weeks the condition of the test plants as compared with that of the untreated plants was determined visually and scored on a scale of 0 to 100 percent where 0 corresponds to no injury and 100 corresponds to complete kill. Species abbreviations as described for Table I with the following additions: soybean (Glycine max, GLXMA), rape (Brassica napus, BRSNN), chickweed (Stellaria media, STEME), cocklebur (Xanthium strumarium XANST), lambsquarters (Chenopodium album, CHEAL), violet (Viola tricolor, VIOTR), bindweed (Polygonum convolvulus, POLCO), spurge (Euphorbia heterophylla, EPHHL), Canada thistle (Cirsium arvense, CIRAR), corn (Zea mays, ZEAMX), rice (Oryza sativa, ORYSA), wheat (Triticum aestivum, TRZAS), crabgrass (Digitaria sanguinalis, DIGSA), shattercane (Sorghum vulgare, SORVU) and yellow nutsedge (Cyperus esculentus, CYPES).
(§4) By applying the well-accepted probit analysis as described by J. Berkson in Journal of the American Statistical […], 48, 565 (1953) and by D. Finney in “Probit Analysis” Cambridge University Press (1952), similar data can be used to calculate GR80 values, which are defined as growth reduction factors that correspond to the effective dose of herbicide required to kill or control 80 percent of a target plant. Species abbreviations are as previously defined.

The subject of assay [2] is crabgrass (Digitaria sanguinalis, DIGSA). Description: Post-emergent evaluation. The conditions noted are these: data gathered 15 days after treatment, probit analysis. The protocol: as §1, §2, §3, §4
The test system of assay [3] is violet (Viola tricolor, VIOTR). As to the kind of experiment: Post-emergent evaluation. To be noted: data gathered 15 days after treatment, probit analysis. As for the experimental part: as §1, §2
as §3, with “After 2 weeks the condition of the test plants as compared with that of the untreated plants was determined visually and scored on a scale of 0 to 100 percent where 0 corresponds to no injury and 100 corresponds to complete kill.” left out
as §4

In assay [4] the test system is chickweed (Stellaria media, STEME). As to the kind of experiment: Post-emergent evaluation. The conditions noted are these: data gathered 15 days after treatment, probit analysis. As for the experimental part:
as §1, §2
as §3, with “After 2 weeks the condition of the test plants as compared with that of the untreated plants was determined visually and scored on a scale of 0 to 100 percent where 0 corresponds to no injury and 100 corresponds to complete kill.” left out
as §4

In assay [5] the test system is shattercane (Sorghum vulgare, SORVU). As to the kind of experiment: Post-emergent evaluation. The conditions noted are these: for GR80: data gathered 15 days after treatment, probit analysis. The protocol:
as §1, §2
as §3, with “After 2 weeks the condition of the test plants as compared with that of the untreated plants was determined visually and scored on a scale of 0 to 100 percent where 0 corresponds to no injury and 100 corresponds to complete kill.” left out
as §4

Assay [6] deals with giant foxtail (Setaria faberi, SETFA). Description: Post-emergent evaluation. To be noted: for GR80: data gathered 15 days after treatment, probit analysis; for % growth reduction at the lowest rate tested: 15 days after treatment. The protocol:
as §1, §2
as §3, with “After 2 weeks the condition of the test plants as compared with that of the untreated plants was determined visually and scored on a scale of 0 to 100 percent where 0 corresponds to no injury and 100 corresponds to complete kill.” left out
as §4

The test system of assay [7] is velvetleaf (Abutilon theophrasti, ABUTH). Description: Post-emergent evaluation. To be noted: data gathered 15 days after treatment, probit analysis. As for the experimental part: as §1, §2
as §3, with “After 2 weeks the condition of the test plants as compared with that of the untreated plants was determined visually and scored on a scale of 0 to 100 percent where 0 corresponds to no injury and 100 corresponds to complete kill.” left out
as §4

In assay [8] the test system is morningglory (Ipomoea hederacea, IPOHE). As to the kind of experiment: Post-emergent evaluation. To be noted: data gathered 15 days after treatment, probit analysis. As for the experimental part: as §1, §2
as §3, with “After 2 weeks the condition of the test plants as compared with that of the untreated plants was determined visually and scored on a scale of 0 to 100 percent where 0 corresponds to no injury and 100 corresponds to complete kill.” left out
as §4

In assay [9] the test system is barnyardgrass (Echinochloa crusgalli, ECHCG). As to the kind of experiment: Post-emergent evaluation. To be noted: for GR80: data gathered 15 days after treatment, probit analysis; for % growth reduction at the lowest rate tested: 15 days after treatment. As for the experimental part: as §1, §2
as §3, with “After 2 weeks the condition of the test plants as compared with that of the untreated plants was determined visually and scored on a scale of 0 to 100 percent where 0 corresponds to no injury and 100 corresponds to complete kill.” left out
as §4

The next assay relates to test plant species. Description: Biological assays of the enantiomers (herbicidal activity). To be noted: resolved enantiomers. As for the experimental part: as §1, with “The plants were employed for testing when they reached the first or second true leaf stage.” left out
A weighed amount, determined by the highest rate to be tested, of each test compound was placed in a 20 mL glass vial and was dissolved in 4 mL of a 97:3 v/v (volume/volume) mixture of acetone and dimethyl sulfoxide (DMSO) to obtain concentrated stock solutions. […]
The treated plants and control plants were placed in a greenhouse as described above and watered by sub-irrigation to prevent wash-off of the test compounds. After 2 weeks the condition of the test plants as compared with that of the untreated plants was determined visually and scored on a scale of 0 to 100 percent where 0 corresponds to no injury and 100 corresponds to complete kill. […]

Assay [10] has as its system lambsquarters (Chenopodium album, CHEAL). Description: Synergistic herbicidal activity, foliar track sprayer. To be noted: nonanoic acid 1120 g ae/ha alone, 14 days, 1% crop oil concentrate. As for the experimental part:
(§5) Methylidene mevalonate alone and in combination with nonanoic acid was applied to the foliage of rapidly growing plant material utilizing a track sprayer calibrated to deliver an application volume of 187 L/ha. These treatments were applied to both broadleaf and grass weed species. All treatments contained 1% crop oil concentrate. Assessment of herbicidal activity was performed visually relative to untreated controls after 14 days incubation in the greenhouse. Species abbreviations are as previously defined.

In assay [11] the test system is wild oats (Avena fatua, AVEFA). The assay is described as above. To be noted: nonanoic acid 1120 g ae/ha alone, 14 days, 1% crop oil concentrate. The protocol:
as §5

For assay [12], the system named is crabgrass (Digitaria sanguinalis, DIGSA). The description is as above. The conditions noted are these: nonanoic acid 1120 g ae/ha alone, 14 days, 1% crop oil concentrate. The protocol: as §5
In assay [13] the test system is morningglory (Ipomoea hederacea, IPOHE). The assay is described as above. The conditions noted are these: nonanoic acid 1120 g ae/ha alone, 14 days, 1% crop oil concentrate. The protocol:
as §5

`C=C(CO)C(C)(O)CC(=O)[O-].[K+]` (racemic): the GR80 is given as 603 g ae/ha in assay [1]; 1003 g ae/ha in assay [2]; 1768 g ae/ha in [3]; 2089 g ae/ha in assay [4]; 400 g ae/ha in assay [5]; less than 375 g ae/ha in [6]. Also, the values for the GR80 in [7], in assay [8] and in [9] were 720 g ae/ha, 375 g ae/ha and less than 375 g ae/ha, respectively. Moreover, the figures for the “% growth reduction at the lowest rate tested” value in [6] and in assay [9] were 95% and 98%, respectively.

Take `C=C(CO)C(C)(O)CC(=O)[O-].[Na+]` (racemic): the GR80 in [1] is 375 g ae/ha; in assay [2] it was 774 g ae/ha; in assay [3], 2290 g ae/ha; in [4] it was 1358 g ae/ha; in assay [5], less than 375 g ae/ha; in assay [6], less than 375 g ae/ha. For the same compound, the GR80 in [7] was 965 g ae/ha; in [8], 416 g ae/ha; in assay [9], less than 375 g ae/ha. Besides, the “% growth reduction at the lowest rate tested” value is 93% in assay [5] (lowest rate tested, 15 days after treatment); 97% in assay [6]; 98% in [9].

Turning to `C=C(CO)C(C)(O)CC(=O)[O-].[K+]` (single isomer, unassigned; (+)) [(+)-4-Methylidene Mevalonate, Potassium Salt], the herbicidal activity result with test plant species is “herbicidal activity was manifested”. Moreover, the GR80 in assay [1] (Potassium Salt) was 429 g ae/ha; in [2] (Potassium Salt) it was 916 g ae/ha; in [3] (Potassium Salt) it was 1865 g ae/ha; in [4] (Potassium Salt), 1349 g ae/ha; in [5] (Potassium Salt) it was 490 g ae/ha; in assay [6] (Potassium Salt) it was 183 g ae/ha. Also, the GR80 in [7] (Potassium Salt) came out at 1135 g ae/ha; in assay [8] (Potassium Salt), 341 g ae/ha; in assay [9] (Potassium Salt), 351 g ae/ha.

For the compound `C=C(CO)C(C)(O)CC(=O)[O-].[K+]` (single isomer, unassigned; (-)) [(−)-4-Methylidene Mevalonate, Potassium Salt], the GR80 in [1] (Potassium Salt), in assay [2] (Potassium Salt), in assay [3] (Potassium Salt), in assay [4] (Potassium Salt), in assay [5] (Potassium Salt) and in assay [6] (Potassium Salt) was more than 1500 g ae/ha in each case. Besides, the GR80 in [7] (Potassium Salt), in assay [8] (Potassium Salt) and in assay [9] (Potassium Salt) was more than 1500 g ae/ha throughout.

Take `C=C1COC(=O)CC1(C)O` (centres unmarked) [Methylidene Mevalonolactone]: the GR80 in assay [1] is 834 g ae/ha; in assay [2], 834 g ae/ha; in [3], 2473 g ae/ha; in [4] it was 3032 g ae/ha; in assay [5] it was 615 g ae/ha; in [6] it was 430 g ae/ha. For the same compound, the GR80 in assay [7] is recorded as 2266 g ae/ha; in assay [8], 725 g ae/ha; in assay [9], less than 375 g ae/ha. Also, in assay [9], the “% growth reduction at the lowest rate tested” value came out at 100%.

As to `CCCCCCCCC(=O)O` [Nonanoic Acid, nonanoic acid, reference compound], the “Actual Injury % growth reduction” value in assay [10], in [11], in assay [12] and in [13] was 0% in each case.
